Data: PubChem BioAssay AID1645862 (Buhrlage Lab, Dana-Farber Cancer Institute and Novartis …, 2021)
Calls of active or inactive are those of the source. How the calls were made is not given here.

Molecular target: Ubiquitin carboxyl-terminal hydrolase 8 (Homo sapiens) (UniProt P40818)
Assay: Ubiquitin-specific protease 8 inhibitors, concentration-effect, biochemical, validation of initial actives (AID 1645862);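 further: potency reflects inhibition of USP8 cleavage of a ubiquitin rhodamine substrate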
Details: recombinant USP8 deubiquitinase activity assay

Ubiquitin carboxyl-terminal hydrolase 8 (Homo sapiens), sequence (P40818 whole entry, looked up): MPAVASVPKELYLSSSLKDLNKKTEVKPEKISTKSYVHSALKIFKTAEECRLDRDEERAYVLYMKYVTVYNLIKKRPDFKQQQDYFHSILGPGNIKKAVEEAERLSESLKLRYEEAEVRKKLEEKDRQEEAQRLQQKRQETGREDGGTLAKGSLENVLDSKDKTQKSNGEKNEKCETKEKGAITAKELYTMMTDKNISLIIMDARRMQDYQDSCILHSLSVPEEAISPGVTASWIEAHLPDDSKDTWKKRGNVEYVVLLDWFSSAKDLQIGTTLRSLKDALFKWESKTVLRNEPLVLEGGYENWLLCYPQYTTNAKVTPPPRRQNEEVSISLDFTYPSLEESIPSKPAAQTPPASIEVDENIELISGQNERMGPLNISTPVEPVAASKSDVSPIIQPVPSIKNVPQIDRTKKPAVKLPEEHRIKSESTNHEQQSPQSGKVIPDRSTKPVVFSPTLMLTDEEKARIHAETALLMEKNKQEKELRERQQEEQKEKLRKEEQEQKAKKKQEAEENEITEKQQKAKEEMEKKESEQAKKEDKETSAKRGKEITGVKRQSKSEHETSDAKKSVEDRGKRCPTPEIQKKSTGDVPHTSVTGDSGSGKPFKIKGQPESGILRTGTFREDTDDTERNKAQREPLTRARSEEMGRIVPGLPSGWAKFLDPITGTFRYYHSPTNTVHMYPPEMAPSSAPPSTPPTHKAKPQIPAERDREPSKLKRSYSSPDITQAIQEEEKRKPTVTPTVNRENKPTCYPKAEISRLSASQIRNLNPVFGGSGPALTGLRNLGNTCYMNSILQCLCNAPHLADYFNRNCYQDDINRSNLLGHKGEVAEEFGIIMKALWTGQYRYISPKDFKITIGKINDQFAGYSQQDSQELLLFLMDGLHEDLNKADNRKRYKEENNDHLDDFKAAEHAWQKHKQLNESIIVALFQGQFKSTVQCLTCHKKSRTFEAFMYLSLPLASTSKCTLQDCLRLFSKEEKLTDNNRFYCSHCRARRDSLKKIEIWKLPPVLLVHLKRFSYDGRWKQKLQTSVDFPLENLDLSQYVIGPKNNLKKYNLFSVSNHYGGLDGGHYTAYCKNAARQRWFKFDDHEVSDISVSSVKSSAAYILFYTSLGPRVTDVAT

| Compound | IC50 |
| --- | --- |
| COc1cc(OC)cc(-c2nc(-c3cn(-c4cccc(F)c4)nn3)no2)c1 | 33 µM |
| COc1ccc(CNC(=O)CN2C(=O)CC(c3ccccc3)=Nc3ccccc32)cc1 | > 40 µM (inactive) |
| COc1cc(C2CC(=O)c3c([nH]c(C(=O)OCCOc4ccccc4)c3C)C2)cc(OC)c1OC (configuration not stated) | > 40 µM (inactive) |
| COc1ccc(C(=O)COC(=O)c2cccc(NC(=O)c3ccc(Cl)cc3)c2)cc1 | > 40 µM (inactive) |
| Cc1cc(Cl)ccc1NC(=O)c1cc(-c2cccnc2)n[nH]1 | > 40 µM (inactive) |
| Cc1c(C(=O)NCc2cccc(Br)c2)oc2c1-c1[nH]ncc1CC2 | > 40 µM (inactive) |
| CCn1cc2c(n1)c(=O)n(Cc1ccccc1)c(=O)n2CC(=O)Nc1ccc(C)cc1C | 24.4 µM |
| O=C(Nc1nc(-c2ccccc2)ns1)c1ccc2ncsc2c1 | > 40 µM (inactive) |
| Cc1ccc(C(=O)O)cc1NC(=O)C(Sc1cccc(NC(=O)c2ccccc2C)c1)c1ccccc1 (configuration not stated) | > 40 µM (inactive) |
| COc1ccc(-c2noc(C3(c4ccc(F)cc4)CCOCC3)n2)cc1 | > 40 µM (inactive) |
| COc1c(C)c(OC(=O)c2c(C)c(C)c(OC(=O)c3c(C)c(C)c(O)c(C)c3O)c(C)c2OC)c(C)c(C)c1C(=O)O | > 40 µM (inactive) |
| Cc1ccc(-n2c(=O)[nH]c3c(C(N)=O)nc(-c4ccc(OCc5ccccc5)cc4)nc32)cc1 | > 40 µM (inactive) |
| COc1ccc(CNC(=O)CCCc2nnc3c(=O)n(-c4cc(C)cc(C)c4)ccn23)cc1 | > 40 µM (inactive) |
| Cc1cccc(NC(=O)Nc2ccc(C)n(CC(=O)Nc3ccc(C)c(C)c3)c2=O)c1 | > 40 µM (inactive) |
| O=C(CNC(=O)c1ccc2nc(-n3cccc3)sc2c1)NCc1cccc(Cl)c1 | > 40 µM (inactive) |
| O=C(NC(Cc1ccccc1)c1nc2ccccc2[nH]1)C1CC1 (configuration not stated) | 24.4 µM |
| CCN(c1ccc(NC(=O)CSc2nnc(-c3ccccc3)n2-c2ccc(OC)c(OC)c2)cc1)C(C)C | > 40 µM (inactive) |
| O=C(CSc1nnc2n(-c3ccccc3)c(=O)c3ccccc3n12)c1ccc(F)cc1 | > 40 µM (inactive) |
| CCOc1ccc(NC(=O)Cn2c(=O)n(CCC(=O)NCc3ccccc3OC)c(=O)c3ccccc32)cc1 | > 40 µM (inactive) |
| CS(=O)(=O)c1ccc2nc(N(Cc3cccnc3)C(=O)c3ccc4ccccc4c3)sc2c1 | > 40 µM (inactive) |

| Compound | IC50 |
| --- | --- |
| COc1cccc(C2c3[nH]c4ccccc4c3C[C@@H]3C(=O)N(C4CC4)CC(=O)N23)c1 (some centres not stated) | > 40 µM (inactive) |
| O=c1[nH]c2ccc(S(=O)(=O)Nc3ccc(O)c4ccccc34)cc2[nH]1 | 11.2 µM |
| Cc1ccc(Nc2nc(NCC(=O)Nc3cc(C)ccc3C)nc(Nc3ccc(C)cc3)n2)cc1 | > 40 µM (inactive) |
| Cn1c(C(=O)NCc2ccccn2)cc2c(=O)[nH]c3ccccc3c21 | > 40 µM (inactive) |
| COc1cccc(C(=O)Nc2ccc(SC(C)C(=O)Nc3ccc(C(N)=O)cc3)cc2)c1 (configuration not stated) | > 40 µM (inactive) |
| Cc1ccccc1-c1noc(-c2cn(Cc3ccc(NC(=O)Cc4ccccc4)cc3)cn2)n1 | > 40 µM (inactive) |
| O=C(COc1ccc(Cl)cc1)Nc1noc(-c2ccccc2)n1 | 39.3 µM |
| CCCCCCCCCC(CCCCCCCCCC(=O)O)O[C@H]1O[C@@H](COC(C)=O)[C@H](O)[C@@H](OC(=O)CC(=O)O)[C@H]1O (some centres not stated) | > 40 µM (inactive) |
| O=C(CN1CC=C(c2ccccc2)CC1)Nc1ccc(S(=O)(=O)N2CCOCC2)cc1 | > 40 µM (inactive) |
| CCCCCCCCCC(CCCCCCCCCC(=O)O)O[C@H]1O[C@@H](COC(C)=O)[C@H](O)[C@@H](O)[C@H]1OC(=O)CC(=O)O (some centres not stated) | > 40 µM (inactive) |
| Cc1ccc(N2CC(c3nc4ccccc4n3CCOc3cccc(C)c3)CC2=O)cc1 (configuration not stated) | > 40 µM (inactive) |
| COc1cc(NC(=O)Cc2ccccc2)ccc1NC(=O)c1cc2ccccc2o1 | > 40 µM (inactive) |
| O=C(CSc1ccc(-c2ccccc2)nn1)Nc1ccc(F)c([N+](=O)[O-])c1 | > 40 µM (inactive) |
| CCC(=O)Nc1nc2cc(NC(=O)Nc3cc(C)cc(C)c3)ccc2s1 | > 40 µM (inactive) |
| Nc1c(-c2nc(-c3ccccc3Cl)no2)nnn1-c1ccc(Cl)cc1 | 4.79 µM |
| Cc1cc(=O)n(C)c2c(O)c3c(cc12)c(C)cc(=O)n3C | 0.256 µM |
| CCOCc1ccc(C(=O)N[C@H](C)c2nc3cc(-c4ccc(OC)cc4)ncn3n2)cc1 | > 40 µM (inactive) |
| c1ccc2sc(-c3csc(-c4ccc5c(c4)OCCO5)n3)nc2c1 | > 40 µM (inactive) |
| COc1ccc(NS(=O)(=O)c2cc(NC(=O)CC(=O)c3ccc([N+](=O)[O-])cc3)ccc2C)cc1 | > 40 µM (inactive) |

Second part, the molecule after the results:

| IC50 | Compound |
| --- | --- |
| > 40 µM (inactive) | O=C(Cn1c(=O)n(CCC(=O)N2CCc3ccccc3C2)c(=O)c2ccccc21)NCc1ccccc1Cl |
| > 40 µM (inactive) | CCc1ccccc1NC(=O)CN1C(=O)C2CCCC2=Nc2ccccc21 (configuration not stated) |
| > 40 µM (inactive) | CN1CCc2c(C#N)c(N3CCOCC3)nc(NCC3CCCO3)c2C1 (configuration not stated) |
| > 40 µM (inactive) | CNc1ncc(C(=O)N2CCOC(C(=O)N3CCCCCC3)C2)cn1 (configuration not stated) |
| > 40 µM (inactive) | O=C(Nc1ccc(C(F)(F)F)cc1)C1CC(=O)N(c2ccc3c(c2)OCCO3)C1 (configuration not stated) |
| > 40 µM (inactive) | O=S1(=O)CCN(Cc2c(F)cccc2F)c2c(F)nc(N3CCOCC3)c(F)c21 |
| > 40 µM (inactive) | NC(=O)C1(N2CCCCC2)CCN(c2ncc3c(=O)n(-c4ccccc4)c(=O)[nH]c3n2)CC1 |
| > 40 µM (inactive) | CN(C)S(=O)(=O)c1ccc(NC(=O)CN2CCCc3ccccc32)cc1 |
| > 40 µM (inactive) | O=C(Nc1ccc(Br)cc1F)c1ccc(S(=O)(=O)N2CCCC2)cc1 |
| > 40 µM (inactive) | CSc1nc2ncn(CC(=O)Nc3ccc(Br)cc3)c(=O)c2s1 |
| > 40 µM (inactive) | COC(=O)Nc1cccn(Cc2c(Cl)cccc2Cl)c1=O |
| > 40 µM (inactive) | O=C(CNS(=O)(=O)c1ccc(F)cc1)N1CCCC(c2nnc3ccccn23)C1 (configuration not stated) |
| > 40 µM (inactive) | O=C(NC1CCCCC1)C(c1ccc(F)cc1)N(C(=O)C1COc2ccccc2O1)c1ccc2c(c1)OCO2 (configuration not stated) |
| > 40 µM (inactive) | COc1ccc(NC(=O)c2nnc(C(=O)NCCN3CCCCCC3)s2)cc1 |
| 25 µM | C[C@@H]1CO[C@@H]2C3=C(C(=O)C=CC3=O)[C@H]3OC(=O)[C@@H]4CCC5[C@@H]1CCC52C34 (some centres not stated) |
| > 40 µM (inactive) | O=C(c1cccnc1)N1CCN(c2cc(-c3ccccc3)[nH]n2)CC1 |
| > 40 µM (inactive) | COc1cc2c(c(OCC(=O)Nc3ccc4c(c3)OCCO4)c1)C(=O)O[C@@H](C)CCCC(=O)CCCCC2 |
| > 40 µM (inactive) | Cc1cc(C)c(NC(=O)CSc2nc3nccnc3c(=O)n2Cc2ccccc2Cl)c(C)c1 |
| > 40 µM (inactive) | CCCn1c(=O)c2sccc2n2c(CCC(=O)N3CCc4ccccc4C3)nnc12 |
| > 40 µM (inactive) | O=C(Nc1cc(F)c2nc(N3CCCC3)ccc2c1)c1ccco1 |
| > 40 µM (inactive) | O=C(CSc1nc(=O)n(Cc2ccncc2)c2c1CCC2)NCCc1ccccc1 |
| 0.667 µM | Cc1occ2c1C(=O)c1c(O)ccc(O)c1C2 |
| > 40 µM (inactive) | Cc1ccc(CNC(=O)c2nc(-c3ccc4c(c3)OCC(=O)N4C)no2)cc1 |
